The assay has as its target T1, myoferlin (MYOF) (Homo sapiens, UniProt Q9NZM1).
T1 construct: C2D domain (F3 construct, amino acids 1116–1272, GST fusion in pGEX4T-1; ~44 kDa in SPR)
T1 sequence (Q9NZM1 1116-1272): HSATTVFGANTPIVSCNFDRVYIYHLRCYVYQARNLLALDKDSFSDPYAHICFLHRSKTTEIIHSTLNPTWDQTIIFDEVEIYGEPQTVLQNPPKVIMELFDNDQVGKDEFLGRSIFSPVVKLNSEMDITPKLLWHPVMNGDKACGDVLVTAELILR
Briefly: SPR (Biacore X-100, C2D immobilized on CM5 chip); supported by competition pull-down with WJ460-biotin. It is filed as binding. For orientation: SPR reads the build-up and loss of mass on a sensor chip optically.

Among the data in publication PMC6137146, “A small molecule targeting myoferlin exerts promising anti-tumor effects on breast cancer” (Nature Communications, 2018) are Kd values, retold here.

Structures are written as SMILES.

On to `COc1ccccc1N1C(=O)CSC1c1cccc(C(=O)NCCCCc2ccccc2)c1` (stereo not shown) [WJ460], for which the Kd (usually the equilibrium constant for the complex coming apart) is ~1330 nM.
